Laboratory results taken from the supplement of paper PMC11451515.

Experiments:
Conditions in all cases: 48 h
SEM cells [1] = test: cell viability relative to DMSO control; higher = less cytotoxic
Summary of the method: (§1)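 Viability values are per-plate percentages of DMSO wells, with background from cell-free wells. Library compounds in DMSO were pin-dosed, in an 11-point threefold series from 47 μM to 0.79 nM, onto NOMO1 or SEM (500 cells/well) or P12-Ichikawa (1000 cells/well) leukemia cells in 1536-well plates (5 μl). Those cells had been adapted for at least four passages in each medium, and CellTiter-Glo One luminescence was read after 48 h at 37°C.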

P12-Ichikawa [2] = test: as above
Summary of the method: as §1

NOMO1 [3] = test: as above
Summary of the method: as §1

SEM cells [4] = test: AUC of viability dose-response curve (% viability x log10 dose units); higher = less sensitive
Summary of the method: (§2)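 Leukemia cells adapted to each medium (500 or 1000 cells/well, 1536-well plates) were exposed to library compounds in DMSO for 48 h at 37°C at 11 threefold doses, 47 μM to 0.79 nM. Luminescence by CellTiter-Glo One was normalised per plate to DMSO and cell-free wells, then fitted with a four-parameter log-logistic curve on log10 dose. Curves above full viability were scaled and quality-control failures removed before area under the curve was integrated by trapezoidal rule.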

P12-Ichikawa [5] = test: as above
Summary of the method: as §2

NOMO1 [6] = test: as above
Summary of the method: as §2

C[C@]12CC[C@H]3[C@@H](CCC/4=C/C(=O)CC[C@]34C)[C@@H]1CC[C@@H]2OC(=O)CCC5CCCC5
cell viability [%]
Conditions | NOMO1 [3] | P12-Ichikawa [2] | SEM cells [1]
HPLM + 10% dialyzed FBS, 0.000781 µM | 90.8 | 93.1 | 90
HPLM + 10% dialyzed FBS, 0.00234 µM | 100 | 100 | 92.3
HPLM + 10% dialyzed FBS, 0.00702 µM | 103 | 104 | 99.1
HPLM + 10% dialyzed FBS, 0.0211 µM | 113 | 113 | 102
HPLM + 10% dialyzed FBS, 0.0632 µM | 96.1 | 98.8 | 104
HPLM + 10% dialyzed FBS, 0.19 µM | 113 | 101 | 99.9
HPLM + 10% dialyzed FBS, 0.569 µM | 118 | 106 | 95.6
HPLM + 10% dialyzed FBS, 1.71 µM | 104 | 110 | 104
HPLM + 10% dialyzed FBS, 5.12 µM | 111 | 104 | 101
HPLM + 10% dialyzed FBS, 15.4 µM | 114 | 111 | 97.1
HPLM + 10% dialyzed FBS, 46.1 µM | 110 | 114 | 111
RPMI 5 mM glucose + 10% FBS, 0.000781 µM | 86.5 | 83.1 | 99.7
RPMI 5 mM glucose + 10% FBS, 0.00234 µM | 107 | 84.3 | 86.2
RPMI 5 mM glucose + 10% FBS, 0.00702 µM | 119 | 101 | 109
RPMI 5 mM glucose + 10% FBS, 0.0211 µM | 109 | 107 | 105
RPMI 5 mM glucose + 10% FBS, 0.0632 µM | 101 | 115 | 122
RPMI 5 mM glucose + 10% FBS, 0.19 µM | 108 | 104 | 115
RPMI 5 mM glucose + 10% FBS, 0.569 µM | 114 | 107 | 131
RPMI 5 mM glucose + 10% FBS, 1.71 µM | 113 | 108 | 101
RPMI 5 mM glucose + 10% FBS, 5.12 µM | 114 | 110 | 124
RPMI 5 mM glucose + 10% FBS, 15.4 µM | 105 | 101 | 98.8
RPMI 5 mM glucose + 10% FBS, 46.1 µM | 109 | 99.9 | 94.6
RPMI 5 mM glucose + 10% dialyzed FBS, 0.000781 µM | 94.6 | 90.8 | 99.5
RPMI 5 mM glucose + 10% dialyzed FBS, 0.00234 µM | 105 | 93.5 | 105
RPMI 5 mM glucose + 10% dialyzed FBS, 0.00702 µM | 116 | 99.8 | 101
RPMI 5 mM glucose + 10% dialyzed FBS, 0.0211 µM | 110 | 102 | 113
RPMI 5 mM glucose + 10% dialyzed FBS, 0.0632 µM | 111 | 100 | 104
RPMI 5 mM glucose + 10% dialyzed FBS, 0.19 µM | 116 | 104 | 104
RPMI 5 mM glucose + 10% dialyzed FBS, 0.569 µM | 130 | 104 | 108
RPMI 5 mM glucose + 10% dialyzed FBS, 1.71 µM | 107 | 98.9 | 121
RPMI 5 mM glucose + 10% dialyzed FBS, 5.12 µM | 116 | 104 | 124
RPMI 5 mM glucose + 10% dialyzed FBS, 15.4 µM | 111 | 110 | 90.6
RPMI 5 mM glucose + 10% dialyzed FBS, 46.1 µM | 109 | 96.7 | 109

AUC of viability dose-response curve
Conditions | NOMO1 [6] | P12-Ichikawa [5] | SEM cells [4]
HPLM + 10% dialyzed FBS | 461 | 448 | 452
RPMI 5 mM glucose + 10% FBS | 471 | 459 | 463
RPMI 5 mM glucose + 10% dialyzed FBS | 464 | 466 | 462

CCN1CCN(C(=O)Cc2ccc(Nc3ncc(F)c(Nc4ccc(C(=O)Nc5ccccc5Cl)cc4)n3)cc2)CC1
cell viability [%]
Conditions | NOMO1 [3] | P12-Ichikawa [2] | SEM cells [1]
HPLM + 10% dialyzed FBS, 0.000781 µM | 93.9 | 107 | 79.1
HPLM + 10% dialyzed FBS, 0.00234 µM | 119 | 105 | 90.8
HPLM + 10% dialyzed FBS, 0.00702 µM | 112 | 108 | 97.2
HPLM + 10% dialyzed FBS, 0.0211 µM | 115 | 108 | 111
HPLM + 10% dialyzed FBS, 0.0632 µM | 112 | 116 | 109
HPLM + 10% dialyzed FBS, 0.19 µM | 114 | 118 | 107
HPLM + 10% dialyzed FBS, 0.569 µM | 109 | 116 | 108
HPLM + 10% dialyzed FBS, 1.71 µM | 109 | 107 | 83.1
HPLM + 10% dialyzed FBS, 5.12 µM | 62.6 | 60.1 | 61.2
HPLM + 10% dialyzed FBS, 15.4 µM | 62.4 | 48.1 | 33.6
HPLM + 10% dialyzed FBS, 46.1 µM | 49.1 | 26.2 | 27.6
RPMI 5 mM glucose + 10% FBS, 0.000781 µM | 99.6 | 105 | 81.8
RPMI 5 mM glucose + 10% FBS, 0.00234 µM | 98.1 | 108 | 108
RPMI 5 mM glucose + 10% FBS, 0.00702 µM | 98 | 112 | 103
RPMI 5 mM glucose + 10% FBS, 0.0211 µM | 92.7 | 111 | 108
RPMI 5 mM glucose + 10% FBS, 0.0632 µM | 111 | 115 | 118
RPMI 5 mM glucose + 10% FBS, 0.19 µM | 121 | 122 | 105
RPMI 5 mM glucose + 10% FBS, 0.569 µM | 101 | 111 | 101
RPMI 5 mM glucose + 10% FBS, 1.71 µM | 90.7 | 114 | 82.4
RPMI 5 mM glucose + 10% FBS, 5.12 µM | 81.2 | 73.2 | 58.8
RPMI 5 mM glucose + 10% FBS, 15.4 µM | 47.1 | 50.9 | 11.5
RPMI 5 mM glucose + 10% FBS, 46.1 µM | 59.4 | 41 | 8.62
RPMI 5 mM glucose + 10% dialyzed FBS, 0.000781 µM | 97.5 | 119 | 80.4
RPMI 5 mM glucose + 10% dialyzed FBS, 0.00234 µM | 109 | 111 | 89.3
RPMI 5 mM glucose + 10% dialyzed FBS, 0.00702 µM | 104 | 112 | 111
RPMI 5 mM glucose + 10% dialyzed FBS, 0.0211 µM | 117 | 125 | 97.6
RPMI 5 mM glucose + 10% dialyzed FBS, 0.0632 µM | 107 | 131 | 116
RPMI 5 mM glucose + 10% dialyzed FBS, 0.19 µM | 103 | 121 | 118
RPMI 5 mM glucose + 10% dialyzed FBS, 0.569 µM | 114 | 107 | 101
RPMI 5 mM glucose + 10% dialyzed FBS, 1.71 µM | 103 | 107 | 81.6
RPMI 5 mM glucose + 10% dialyzed FBS, 5.12 µM | 64.9 | 79.2 | 54.4
RPMI 5 mM glucose + 10% dialyzed FBS, 15.4 µM | 55.8 | 52.6 | 19.1
RPMI 5 mM glucose + 10% dialyzed FBS, 46.1 µM | 49 | 45.6 | 14.6

AUC of viability dose-response curve
Conditions | NOMO1 [6] | P12-Ichikawa [5] | SEM cells [4]
HPLM + 10% dialyzed FBS | 420 | 405 | 402
RPMI 5 mM glucose + 10% FBS | 430 | 418 | 383
RPMI 5 mM glucose + 10% dialyzed FBS | 420 | 413 | 386
